Laboratory results from patent publication US7166299B2, “Preparation of aqueous clear solution dosage forms with bile acids” (priority 1998, dated 2007).
In brackets after ≈: the same amount, converted by molar mass. Several values for one entry are separate records, joined by “and”; a condition that tells them apart may be missing. Equal values may be shown once.

Experiments:
[1] = cited from earlier work
[2] = Hematic levels of UDCA and glyco UDCA after oral administration of 200 mg UDCA aqueous solution to three healthy men (Example VI); type: in vivo, human; details: male, human, in vivo, po, 200 mg
Experimental: The aqueous solution dosage forms, according to this invention, containing 200 mg of ursodeoxycholic acid (UDCA), were prepared according to the method described in the above-described Example III and were administered to three healthy men having normal body weight after fasting. The hematic levels of UDCA and glyco UDCA were evaluated by means of well known chemical methods. After applying buffered serum to sep-pak column, methanol eluate was derivatized with phenacyl bromide at 80° C. for 45 minutes. These phenacyl bromide derivatives were dissolved in acetonitrile in preparation for HPLC. The experimental results of the absorption measured at certain times after dosage administration include the total absorption expressed as the area under the serum concentration-time curve (AUC: μg/mL×hours), the maximum hematic concentration (Cmax; μg/mL) that has been obtained, and the time (Tmax; hour) in which said maximum concentration has been obtained.
The experimental pharmacokinetic tests of the aqueous solution dosage forms according to this invention carried out on men show substantial improvement in AUC, Cmax and Tmax in comparison with the best results from any dosage forms known presently.
Table 4A and Table 4B show plasma concentration of UDCA and GUDCA measured in 3 men over time following on oral administration of the UDCA and GUDCA containing formulations according to Example VI and comparison of results against results of others employing different pharmaceutical formulations of UDCA.

[3] = Solution stability test (HPLC) of single bile acid with maltodextrin in aqueous solution, Example I; type: physicochemical
Experimental: (§1) The stability of dosage formulations of the invention were evaluated by measuring the concentration of the relevant bile acid over time in preparations comprising soluble bile acid, a high molecular weight aqueous soluble starch conversion product, and water at various pH and temperature levels. The retention time of each bile acid may be adjusted as needed to permit individual analysis each bile acid present in a complex samples, i.e. a sample having a plurality of bile acids.
(§2) The stability tests were conducted on three different aqueous solution systems: […].
(§3) The stability tests were performed with HPLC and microscope light at various pH conditions under the normal and accelerated conditions. Accelerated conditions for testing pharmaceutical compositions have been described (Remington, The Science and Practice of Pharmacy, 19th ed., p. 640). […] Thus, the formulations of the examples are suitable for preparing a commercial liquid dosage form. […] Some formulations remain stable for over 2 years.
(§4) For the solution stability test for each bile acid, HPLC was used to measure the concentration of the relevant soluble bile acid under the following conditions: the elution solvent of 0.02 M KH2PO4:acetonitrile in a ratio of 55:45, with a pH of 3.01, the flow rate was 0.8 mL/min., the injection volume was 20 μL, wave length for detection was 195 nm. In the tables, the concentration of the indicated bile acid salt for each of the three numbered trials and the average thereof is reported on each line. The percentage indicates the relative concentration of the bile acid salt after incubation for a certain amount of time in comparison with the initial concentration.
100 mL of the aqueous solution in which one of the above bile acids is dissolved was prepared. Into the resulting clear solution, maltodextrin, a high molecular weight aqueous soluble starch conversion product, was added with agitation at room temperature. Purified water was added to adjust the total volume to be 100 mL. According to the instant invention and all examples, purified water is deionized, distilled deionized-distilled water, or a grade commonly used for pharmaceutical preparations.

[4] = Solution stability test (HPLC) of mixed bile acids with maltodextrin in aqueous solution, Example II; type: physicochemical; details: Table 2: pH 1, 50° C.
Experimental: as §1, §2, §3, §4
Into the resulting clear solution, maltodextrin was added with agitating at room temperature. Purified water was added to adjust the total volume to be 100 mL.

[5] = Table 1B: pH 10, 50° C., day 20

SMILES | solubility in the gastric juices and in aqueous hydrochloric acid solution [1] | Percentage of day 0 concentration ([3]; Table 1A: pH 7, 50° C., day 0) [%] | Percentage of day 0 concentration ([3]; Table 1A: pH 7, 50° C., day 4) [%] | Percentage of day 0 concentration ([3]; Table 1A: pH 7, 50° C., day 7) [%] | Percentage of day 0 concentration ([3]; Table 1A: pH 7, 50° C., day 20) [%] | Percentage of day 0 concentration ([3]; Table 1B: pH 10, 50° C., day 0) [%] | Percentage of day 0 concentration ([3]; Table 1B: pH 10, 50° C., day 4) [%] | Percentage of day 0 concentration ([3]; Table 1B: pH 10, 50° C., day 7) [%] | Percentage of day 0 concentration [3, 5] [%] | Percentage of day 0 concentration ([4]; day 0) [%] | Percentage of day 0 concentration ([4]; day 4) [%] | concentration by HPLC, Average ([4]; day 4) | concentration by HPLC, trials #1-#3 ([4]; day 4) | Percentage of day 0 concentration ([4]; day 7) [%] | concentration by HPLC, Average ([4]; day 7) | concentration by HPLC, trials #1-#3 ([4]; day 7) | Percentage of day 0 concentration ([4]; day 20) [%] | concentration by HPLC, Average ([4]; day 20) | concentration by HPLC, trials #1-#3 ([4]; day 20) | also measured
C[C@H](CCC(=O)NCCS(=O)(=O)O)[C@H]1CC[C@H]2[C@@H]3[C@H](O)C[C@@H]4C[C@H](O)CC[C@]4(C)[C@H]3CC[C@]12C [taurochenodeoxycholic acid] | especially insoluble | – | – | – | – | – | – | – | – | – | – | – | – | – | – | – | – | – | – | solubility in hydrochloric acid solution [1]: insoluble
C[C@H](CCC(=O)NCC(=O)O)[C@H]1CC[C@H]2[C@@H]3[C@@H](O)C[C@@H]4C[C@H](O)CC[C@]4(C)[C@H]3CC[C@]12C [GUDCA, glycoursodeoxycholic acid] | – | – | – | – | – | – | – | – | – | – | – | – | – | – | – | – | – | – | – | AUC ([2]; AUC, mean): 4380 ± 1170 ng·h/mL; Cmax ([2]; individual men #1-#3): 1920 ng/mL; Cmax ([2]; mean): 1600 ng/mL; Tmax ([2]; Tmax, mean): 3.5 ± 1.5 h
C[C@H](CCC(=O)O)[C@H]1CC[C@H]2[C@@H]3C(=O)C[C@@H]4C[C@H](O)CC[C@]4(C)[C@H]3CC[C@]12C [KLCA, 7-ketolithocholic acid] | especially insoluble | 100.0 | 100.2 | 101.4 | 102.1 | 100.0 | 100.5 | 101.5 | 102.2 | 100.0 | 98.3 | 0.861 | 0.870 and 0.866 and 0.847 | 96.4 | 0.845 | 0.848 and 0.844 and 0.843 | 74.9 | 0.656 | 0.661 and 0.651 | concentration by HPLC, Average ([3]; Table 1A: pH 7, 50° C., day 0): 0.880; concentration by HPLC, trials #1-#3 ([3]; Table 1A: pH 7, 50° C., day 0): 0.888 and 0.879 and 0.874; concentration by HPLC, Average ([3]; Table 1A: pH 7, 50° C., day 4): 0.882; concentration by HPLC, trials #1-#3 ([3]; Table 1A: pH 7, 50° C., day 4): 0.871 and 0.887 and 0.888; concentration by HPLC, Average ([3]; Table 1A: pH 7, 50° C., day 7): 0.893; concentration by HPLC, trials #1-#3 ([3]; Table 1A: pH 7, 50° C., day 7): 0.897 and 0.893 and 0.888; concentration by HPLC, Average ([3]; Table 1A: pH 7, 50° C., day 20): 0.899; concentration by HPLC, trials #1-#3 ([3]; Table 1A: pH 7, 50° C., day 20): 0.893 and 0.909 and 0.894; concentration by HPLC, Average ([3]; Table 1B: pH 10, 50° C., day 0): 0.870; concentration by HPLC, trials #1-#3 ([3]; Table 1B: pH 10, 50° C., day 0): 0.879 and 0.874 and 0.857; concentration by HPLC, Average ([3]; Table 1B: pH 10, 50° C., day 4): 0.874; concentration by HPLC, trials #1-#3 ([3]; Table 1B: pH 10, 50° C., day 4): 0.870 and 0.873 and 0.880; concentration by HPLC, Average ([3]; Table 1B: pH 10, 50° C., day 7): 0.884; concentration by HPLC, trials #1-#3 ([3]; Table 1B: pH 10, 50° C., day 7): 0.893 and 0.876 and 0.882; concentration by HPLC, Average [3, 5]: 0.889; concentration by HPLC, trials #1-#3 [3, 5]: 0.887 and 0.893; concentration by HPLC, Average ([4]; day 0): 0.876; concentration by HPLC, trials #1-#3 ([4]; day 0): 0.883 and 0.877 and 0.869
C[C@H](CCC(=O)O)[C@H]1CC[C@H]2[C@@H]3[C@H](O)C[C@@H]4C[C@H](O)CC[C@]4(C)[C@H]3CC[C@]12C [CDCA, chenodeoxycholic acid (3α, 7α-dihydroxy-5β-cholanic acid)] | especially insoluble | 100.0 | 101.6 | 105.0 | 105.7 | 100.0 | 100.0 | 104.1 | 107.4 | 100.0 | 94.7 | 0.506 | 0.488 and 0.510 and 0.519 | 87.0 | 0.464 | 0.460 and 0.469 and 0.463 | 30.2 | 0.161 | 0.169 and 0.154 | concentration by HPLC, Average ([3]; Table 1A: pH 7, 50° C., day 0): 0.547; concentration by HPLC, trials #1-#3 ([3]; Table 1A: pH 7, 50° C., day 0): 0.572 and 0.539 and 0.530; concentration by HPLC, Average ([3]; Table 1A: pH 7, 50° C., day 4): 0.556; concentration by HPLC, trials #1-#3 ([3]; Table 1A: pH 7, 50° C., day 4): 0.540 and 0.552 and 0.576; concentration by HPLC, Average ([3]; Table 1A: pH 7, 50° C., day 7): 0.574; concentration by HPLC, trials #1-#3 ([3]; Table 1A: pH 7, 50° C., day 7): 0.581 and 0.588 and 0.553; concentration by HPLC, Average ([3]; Table 1A: pH 7, 50° C., day 20): 0.578; concentration by HPLC, trials #1-#3 ([3]; Table 1A: pH 7, 50° C., day 20): 0.565 and 0.608 and 0.560; concentration by HPLC, Average ([3]; Table 1B: pH 10, 50° C., day 0): 0.522; concentration by HPLC, trials #1-#3 ([3]; Table 1B: pH 10, 50° C., day 0): 0.541 and 0.532 and 0.495; concentration by HPLC, Average ([3]; Table 1B: pH 10, 50° C., day 4): 0.523; concentration by HPLC, trials #1-#3 ([3]; Table 1B: pH 10, 50° C., day 4): 0.511 and 0.519 and 0.538; concentration by HPLC, Average ([3]; Table 1B: pH 10, 50° C., day 7): 0.544; concentration by HPLC, trials #1-#3 ([3]; Table 1B: pH 10, 50° C., day 7): 0.564 and 0.527 and 0.540; concentration by HPLC, Average [3, 5]: 0.561; concentration by HPLC, trials #1-#3 [3, 5]: 0.556 and 0.569 and 0.558; concentration by HPLC, Average ([4]; day 0): 0.534; concentration by HPLC, trials #1-#3 ([4]; day 0): 0.560 and 0.528 and 0.513; solubility in the gastric pH range [1]: no longer soluble; solubility in water [1]: practically insoluble
C[C@H](CCC(=O)O)[C@H]1CC[C@H]2[C@@H]3[C@H](O)C[C@@H]4C[C@H](O)CC[C@]4(C)[C@H]3C[C@H](O)[C@]12C [CA, cholic acid (3α, 7α, 12α-trihydroxy-5β-cholanic acid)] | – | 100.0 | 95.4 | 100.8 | 103.0 | 100.0 | 99.1 | 103.6 | 106.4 | 100.0 | 89.8 | 0.457 | 0.453 and 0.466 | 86.9 | 0.443 | 0.434 and 0.426 and 0.468 | 40.6 | 0.207 | 0.207 and 0.206 | –
C[C@H](CCC(=O)O)[C@H]1CC[C@H]2[C@@H]3CC[C@@H]4C[C@H](O)CC[C@]4(C)[C@H]3C[C@H](O)[C@]12C [DCA, deoxycholic acid (3α, 12α-dihydroxy-5β-cholanic acid)] | especially insoluble | – | – | – | – | – | – | – | – | – | – | – | – | – | – | – | – | – | – | solubility ([1]; water): 240 µg/mL (≈ 611 µM)
C[C@H](CCC(=O)NCCS(=O)(=O)O)[C@H]1CC[C@H]2[C@@H]3[C@@H](O)C[C@@H]4C[C@H](O)CC[C@]4(C)[C@H]3CC[C@]12C [Tauroursodeoxycholic acid] | especially insoluble | – | – | – | – | – | – | – | – | – | – | – | – | – | – | – | – | – | – | solubility in hydrochloric acid solution [1]: insoluble
C[C@H](CCC(=O)O)[C@H]1CC[C@H]2[C@@H]3C[C@H](O)[C@@H]4C[C@H](O)CC[C@]4(C)[C@H]3CC[C@]12C [hyodeoxycholic acid] | especially insoluble | – | – | – | – | – | – | – | – | – | – | – | – | – | – | – | – | – | – | –
